Data from patent US20240376094A2, “SELECTIVE BCL-XL PROTAC COMPOUNDS AND METHODS OF USE” (Les Laboratoires Servier, priority 2021, published 2024).

What was measured:
[1] = target: T1, Bcl-xL (Homo sapiens, UniProt Q07817); experiment: HCT116 Bcl-xL degradation, capillary-based immunoassay (WES); type: cell-based; details: for DC50: HCT116, 24 h, 9-point serial dilution
T1 construct: Measured levels of Bcl-xL protein of HCT116 cells treated with the tested compounds; host or cells: HCT116
Description: HCT116 cells were purchased from ATCC and cultivated in RPMI 1640 supplemented with 10% heat inactivated fetal bovine serum, penicillin (100 IU/mi), streptomycin (100 μg/ml) and L-glutamine (2 mM). Cells were cultured at 37° C. in a humidified atmosphere containing 5% CO2. Cells were seeded in 96 microwell plates, 24 h later cells were treated with compounds (2-point 10/100 nM and/or 9-point serial dilution to determine DC50; quadruplicates) during 24 h and harvested in lysis buffer containing 10 mM Hepes (pH 7.5), 150 mM KCl, 5 mM MgCl2, 1 mM EDTA, 0.4% TritonX100, protease and phosphatase inhibitors cocktails (Calbiochem).
Protein concentration in the supernatants was determined using the Pierce BCA protein assay kit (Thermo Fisher Scientific). Lysates (1.5 μg/μL) were analyzed using an automated capillary electrophoresis WES system with 2-40 kDa Wes Separation Module (25 capillary cartridges, Proteinsimple), in accordance with the manufacturer's protocols. Antibodies against the following proteins were used: Bcl-xL (#2764, Cell Signaling Technology, 1:50) and cofilin (#5175, Cell Signaling Technology, 1:1000). Signals were detected with an HRP-conjugated secondary anti-rabbit antibody (#042-206, Proteinsimple) and were quantified using Compass software (version 4.0, Proteinsimple).
Bcl-xL level was calculated by normalizing Bcl-xL values to cofilin and expressed as a percentage of the normalized value of the untreated cells. DC50 were calculated using standard four-parametric curve fitting. DC50 is defined as the compound concentration at which Bcl-xL is reduced to 50% of that measured for the control. Measured levels of Bcl-xL protein of HCT116 cells treated with the tested compounds at 2-point 10 nM/100 nM and/or 9-point for DC50 determination are shown in Table 15.

[2] = test system: MOLT-4 cells; experiment: MOLT-4 cell viability, CTG assay; type: cell-based; details: Homo sapiens, MOLT-4, 48 h
Text: The MTT colorimetric assay is based on the mitochondrial reduction of tetrazolium salt by living cells. The viable cell number is proportional to the production of formazan salts, which can be read spectrophotometrically at 540 nm. The CTG luminescent assay (CellTiter GLO, Promega) is based on a reagent which lyses cells and measures total adenosine triphosphate (ATP) content. The viable cell number is proportional to the production of ATP.
MOLT-4 cells were purchased from ATCC and cultivated in RPMI 1640 supplemented with 10% heat inactivated fetal bovine serum, penicillin (100 IU/mi), streptomycin (100 μg/ml) and L-glutamine (2 mM). Cells were cultured at 37° C. in a humidified atmosphere containing 5% […].
For CTG assay, cells were seeded in 384 microwell plates (40 μL per well) and exposed to the compounds for 48 h (11-point serial dilution with 5-fold factor, triplicates). At the end of incubation time, 40 μL of CTG solution were added per well. Wells were mixed thoroughly, and plates were incubated at room temperature for 10 minutes to stabilize luminescent signals prior to reading using a luminescence reader (PHERAStar FSX Reader, BMG Labtech).
IC50, were calculated using standard four-parametric curve fitting. IC50 is defined as the compound concentration at which the MTT or CTG signal is reduced to 50% of that measured for the control. Results shown in Table 14 represent the mean of at least 2 independent experiments.

T1 sequence (Q07817 whole entry): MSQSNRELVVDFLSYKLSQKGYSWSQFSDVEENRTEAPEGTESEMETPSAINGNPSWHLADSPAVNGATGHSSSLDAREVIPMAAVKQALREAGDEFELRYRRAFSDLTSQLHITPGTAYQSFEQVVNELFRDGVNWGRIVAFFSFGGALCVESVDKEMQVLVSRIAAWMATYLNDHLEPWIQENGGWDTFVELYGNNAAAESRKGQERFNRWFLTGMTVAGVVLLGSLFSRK

| Compound | DC50 [1] [nM] | IC50 [2] [nM] | remaining activity at 0.01 µM ([1]; HCT-116, HCT116, 10 nM, 24 h, % of untreated cells) [%] | remaining activity at 0.1 µM ([1]; HCT-116, HCT116, 100 nM, 24 h, % of untreated cells) [%] |
| --- | --- | --- | --- | --- |
| Cc1c(Nc2nc3ccccc3s2)nnc2c1CCCN2c1ccc(-c2cnn(CC34CC5(C)CC(C)(C3)CC(OCCN(C)CCCCCC(=O)N3CCC(c6ccc7c(c6)CN(C6CCC(=O)NC6=O)C7=O)CC3)(C5)C4)c2C)c(C(=O)O)n1 (centres unmarked) [Example 67, 6-[3-(1,3-benzothiazol-2-ylamino)-4-methyl-6,7-dihydro-5H-pyrido[2,3-c]pyridazin-8-yl]-3-[1-[[3-[2-[[6-[4-[2-(2,6-dioxo-3-piperidyl)-1-oxo-isoindolin-5-yl]-1-piperidyl]-6-oxo-hexyl]-methyl-amino]ethoxy]-5,7-dimethyl-1-adamantyl]methyl]-5-methyl-pyrazol-4-yl]pyridine-2-carboxylic acid] | > 316 | 24.2 |  |  |
| Cc1c(Nc2nc3ccccc3s2)nnc2c1CCCN2c1ccc(-c2cnn(CC34CC5(C)CC(C)(C3)CC(OCCN(C)CCCCCCCCCCCC(=O)N3CCC(c6ccc7c(c6)CN(C6CCC(=O)NC6=O)C7=O)CC3)(C5)C4)c2C)c(C(=O)O)n1 (centres unmarked) [Example 69, 6-[3-(1,3-benzothiazol-2-ylamino)-4-methyl-6,7-dihydro-5H-pyrido[2,3-c]pyridazin-8-yl]-3-[1-[[3-[2-[[12-[4-[2-(2,6-dioxo-3-piperidyl)-1-oxo-isoindolin-5-yl]-1-piperidyl]-12-oxo-dodecyl]-methyl-amino]ethoxy]-5,7-dimethyl-1-adamantyl]methyl]-5-methyl-pyrazol-4-yl]pyridine-2-carboxylic acid] | 0.711 | 5.14 |  |  |
| Cc1c(Nc2nc3ccccc3s2)nnc2c1CCCN2c1ccc(-c2cnn(CC34CC5(C)CC(C)(C3)CC(OCCN(C)CCCCCCCCC(=O)N3CCC(c6ccc7c(c6)CN(C6CCC(=O)NC6=O)C7=O)CC3)(C5)C4)c2C)c(C(=O)O)n1 (centres unmarked) [Example 71, 6-[3-(1,3-benzothiazol-2-ylamino)-4-methyl-6,7-dihydro-5H-pyrido[2,3-c]pyridazin-8-yl]-3-[1-[[3-[2-[[9-[4-[2-(2,6-dioxo-3-piperidyl)-1-oxo-isoindolin-5-yl]-1-piperidyl]-9-oxo-nonyl]-methyl-amino]ethoxy]-5,7-dimethyl-1-adamantyl]methyl]-5-methyl-pyrazol-4-yl]pyridine-2-carboxylic acid] | > 316 | 10.2 |  |  |
| Cc1c(Nc2nc3ccccc3s2)nnc2c1CCCN2c1ccc(-c2cnn(CC34CC5(C)CC(C)(C3)CC(OCCN(C)CCCCCCCCCCC(=O)N3CCC(c6ccc7c(c6)CN(C6CCC(=O)NC6=O)C7=O)CC3)(C5)C4)c2C)c(C(=O)O)n1 (centres unmarked) [Example 75, 6-[3-(1,3-benzothiazol-2-ylamino)-4-methyl-6,7-dihydro-5H-pyrido[2,3-c]pyridazin-8-yl]-3-[1-[[3-[2-[[11-[4-[2-(2,6-dioxo-3-piperidyl)-1-oxo-isoindolin-5-yl]-1-piperidyl]-11-oxo-undecyl]-methyl-amino]ethoxy]-5,7-dimethyl-1-adamantyl]methyl]-5-methyl-pyrazol-4-yl]pyridine-2-carboxylic acid] |  | 5.85 |  |  |
| Cc1c(Nc2nc3ccccc3s2)nnc2c1CCCN2c1ccc(-c2cnn(CC34CC5(C)CC(C)(C3)CC(OCCN(C)CCCCCCCCCCCCC(=O)N3CCC(c6ccc7c(c6)CN(C6CCC(=O)NC6=O)C7=O)CC3)(C5)C4)c2C)c(C(=O)O)n1 (centres unmarked) [Example 78, 6-[3-(1,3-benzothiazol-2-ylamino)-4-methyl-6,7-dihydro-5H-pyrido[2,3-c]pyridazin-8-yl]-3-[1-[[3-[2-[[13-[4-[2-(2,6-dioxo-3-piperidyl)-1-oxo-isoindolin-5-yl]-1-piperidyl]-13-oxo-tridecyl]-methyl-amino]ethoxy]-5,7-dimethyl-1-adamantyl]methyl]-5-methyl-pyrazol-4-yl]pyridine-2-carboxylic acid] | 0.121 | 4.42 |  |  |
| CN[C@@H](C)C(=O)N[C@H](C(=O)N1CCC[C@H]1c1nc(C(=O)c2cccc(OCCCCN(C)CCOC34CC5(C)CC(C)(CC(Cn6ncc(-c7ccc(N8CCCc9c8nnc(Nc8nc%10ccccc%10s8)c9C)nc7C(=O)O)c6C)(C5)C3)C4)c2)cs1)C1CCCCC1 [Example 99, 6-[3-(1,3-benzothiazol-2-ylamino)-4-methyl-6,7-dihydro-5H-pyrido[2,3-c]pyridazin-8-yl]-3-[1-[[3-[2-[4-[3-[2-[(2S)-1-[(2S)-2-cyclohexyl-2-[[(2S)-2-(methylamino)propanoyl]amino]acetyl]pyrrolidin-2-yl]thiazole-4-carbonyl]phenoxy]butyl-methyl-amino]ethoxy]-5,7-dimethyl-1-adamantyl]methyl]-5-methyl-pyrazol-4-yl]pyridine-2-carboxylic acid] |  | 4.54 |  |  |
| CN[C@@H](C)C(=O)N[C@H](C(=O)N1CCC[C@H]1c1nc(C(=O)c2cccc(OCCCCCCCCCCCCCCN(C)CCOC34CC5(C)CC(C)(CC(Cn6ncc(-c7ccc(N8CCCc9c8nnc(Nc8nc%10ccccc%10s8)c9C)nc7C(=O)O)c6C)(C5)C3)C4)c2)cs1)C1CCCCC1 [Example 100, 6-[3-(1,3-benzothiazol-2-ylamino)-4-methyl-6,7-dihydro-5H-pyrido[2,3-c]pyridazin-8-yl]-3-[1-[[3-[2-[14-[3-[2-[(2S)-1-[(2S)-2-cyclohexyl-2-[[(2S)-2-(methylamino)propanoyl]amino]acetyl]pyrrolidin-2-yl]thiazole-4-carbonyl]phenoxy]tetradecyl-methyl-amino]ethoxy]-5,7-dimethyl-1-adamantyl]methyl]-5-methyl-pyrazol-4-yl]pyridine-2-carboxylic acid] |  | 8.41 |  |  |

Now from value to compound:

| DC50 [1] [nM] | IC50 [2] [nM] | remaining activity at 0.01 µM ([1]; HCT-116, HCT116, 10 nM, 24 h, % of untreated cells) [%] | remaining activity at 0.1 µM ([1]; HCT-116, HCT116, 100 nM, 24 h, % of untreated cells) [%] | Compound |
| --- | --- | --- | --- | --- |
| > 316 | 15.3 |  |  | Cc1c(Nc2nc3ccccc3s2)nnc2c1CCCN2c1ccc(-c2cnn(CC34CC5(C)CC(C)(C3)CC(OCCN(C)CCCCCCCC(=O)N3CCC(c6ccc7c(c6)CN(C6CCC(=O)NC6=O)C7=O)CC3)(C5)C4)c2C)c(C(=O)O)n1 (centres unmarked) [Example 68, 6-[3-(1,3-benzothiazol-2-ylamino)-4-methyl-6,7-dihydro-5H-pyrido[2,3-c]pyridazin-8-yl]-3-[1-[[3-[2-[[8-[4-[2-(2,6-dioxo-3-piperidyl)-1-oxo-isoindolin-5-yl]-1-piperidyl]-8-oxo-octyl]-methyl-amino]ethoxy]-5,7-dimethyl-1-adamantyl]methyl]-5-methyl-pyrazol-4-yl]pyridine-2-carboxylic acid] |
|  | 7.48 | 101 | 90 | Cc1c(Nc2nc3ccccc3s2)nnc2c1CCCN2c1ccc(-c2cnn(CC34CC5(C)CC(C)(C3)CC(OCCN(C)CCCCCCCCCC(=O)N3CCC(c6ccc7c(c6)CN(C6CCC(=O)NC6=O)C7=O)CC3)(C5)C4)c2C)c(C(=O)O)n1 (centres unmarked) [Example 70, 6-[3-(1,3-benzothiazol-2-ylamino)-4-methyl-6,7-dihydro-5H-pyrido[2,3-c]pyridazin-8-yl]-3-[1-[[3-[2-[[10-[4-[2-(2,6-dioxo-3-piperidyl)-1-oxo-isoindolin-5-yl]-1-piperidyl]-10-oxo-decyl]-methyl-amino]ethoxy]-5,7-dimethyl-1-adamantyl]methyl]-5-methyl-pyrazol-4-yl]pyridine-2-carboxylic acid] |
| 0.133 |  |  |  | Cc1c(Nc2nc3ccccc3s2)nnc2c1CCCN2c1ccc(-c2cnn(CC34CC5(C)CC(C)(C3)CC(OCCN(C)CCCCCCCCCCCCCCCC(=O)N3CCC(c6ccc7c(c6)CN(C6CCC(=O)NC6=O)C7=O)CC3)(C5)C4)c2C)c(C(=O)O)n1 (centres unmarked) [Example 74, 6-[3-(1,3-benzothiazol-2-ylamino)-4-methyl-6,7-dihydro-5H-pyrido[2,3-c]pyridazin-8-yl]-3-[1-[[3-[2-[[16-[4-[2-(2,6-dioxo-3-piperidyl)-1-oxo-isoindolin-5-yl]-1-piperidyl]-16-oxo-hexadecyl]-methyl-amino]ethoxy]-5,7-dimethyl-1-adamantyl]methyl]-5-methyl-pyrazol-4-yl]pyridine-2-carboxylic acid] |
